In article PMC4949556, “Subtle Structural Differences Trigger Inhibitory Activity of Propafenone Analogues at the Two Polyspecific ABC Transporters: P‐Glycoprotein (P‐gp) and Breast Cancer Resistance Protein (BCRP)” (Chemmedchem, 2016):

What was measured:
Type in all cases: cell-based
[1] = target: T1, P-gp / BCRP (Homo sapiens, UniProt Q9UNQ0); test: BCRP inhibition: steady-state mitoxantrone accumulation in BCRP-expressing PLB985 cells (flow cytometry); conditions: human, pH 7.4, probe daunorubicin (3 µM) for P-gp; mitoxantrone (7 µM) for BCRP; IC50 P-gp / IC50 BCRP; read-out: selectivity index (SI) P-gp/BCRP
T1 construct: expressed in transfected cells; host or cells: PLB985 human myeloid leukemia cells stably expressing BCRP (gift of B. Sarkadi and K. Nemet, Budapest)
Protocol: (§1) P‐gp and BCRP inhibitory activity was assessed by implementing an intracellular accumulation assay of daunorubicin or mitoxantrone in cells overexpressing P‐gp or BCRP, respectively. In a first run, the effect of compounds 5, 6, 10, 11, and 16 (Figure 2) at 100 μM final concentration was tested (Figure 3). All compounds showing an inhibitory effect of more than 50 % compared with full inhibition by the known inhibitors of P‐gp (verapamil) and BCRP (Ko143) were further processed, and IC50 values were determined (IC50 curves and Hill coefficients are available in Figure S1 and Table S3 in the Supporting Information). […] For P‐gp, nine compounds were classified as inhibitors (5 a, 5 b, 6 a, 10 a, 10 b, 11 b, 16 a, 16 b, 16 c).
(§2) Cell culture: The human myeloid leukemia PLB985 parental and stably expressing BCRP cell lines31 were kindly provided by B. Sarkadi (Institute of Enzymology, Research Centre for Natural Sciences, Budapest, Hungary) and K. Nemet (Creative Cell Ltd., Budapest, Hungary). Both cell lines were cultured in RPMI 1640 supplemented with 10 % FBS and 100 IU mL^−1 of penicillin and streptomycin. The human T‐lymphoblast cell line CCRF VCR1000, overexpressing P‐gp, was obtained by stepwise selection of CCRF‐CEM in vincristine‐containing medium32 and was kindly provided by V. Gekeler (Altana‐Pharma formerly Byk‐Gulden, Konstanz, Germany). CCRF VCR1000 cells were cultured in RPMI 1640 medium containing 20 % FBS and were treated regularly with vincristine (1 μg mL^−1) for about 72 h, followed by centrifugation (300 g, 5 min, RT) and resuspension in normal culture medium. All cell lines were maintained at 37 °C in an atmosphere containing 5 % CO2 with 95 % relative humidity.
(§3) Steady‐state accumulation experiments: For BCRP and P‐gp inhibition studies, the steady‐state accumulation of mitoxantrone (7 μM) and daunorubicin (3 μM), respectively, was performed as previously described.33 Briefly, cells were harvested, pelleted (300 g, 5 min, 4 °C), diluted to a concentration of 12×10^6 cells mL^−1 in HPMI (10 mM Hepes, 120 mM NaCl, 5 mM KCl, 0.4 mM MgCl2, 0.04 mM CaCl2, 10 mM glucose, 10 mM NaHCO3, 5 mM Na2HPO4, pH 7.4 with NaOH) and kept on ice for further processing. For each data point, the cell suspension (25 μL) was preincubated for 5 min at 37 °C with 2 % DMSO (25 μL) in HPMI alone (DMSO control) or containing different concentrations of test compound solutions. Thereafter, cells were preloaded with daunorubicin (50 μL) or mitoxantrone (50 μL) for 30 or 20 min at 37 °C, respectively, to reach a final concentration of 3 or 7 μM, respectively. […] Preloading was stopped by chilling cells on ice for 5 min followed by the addition of 400 μL ice‐cold PBS. Cells were pelleted (300 g, 5 min, 4 °C), the supernatant was discarded, and the cell pellet was resuspended in ice‐cold PBS (150 μL). Until measurement, cells were kept on ice and in the dark. Immediately before cell fluorescence measurement by flow cytometry (BD Accuri C6 and BD FACSCalibur, Becton Dickinson, San Jose, CA, USA; MACSQuant, MiltenyiBiotec GmbH, BergischGladbach, Germany), 50 μL of 4′,6‐diamidin‐2‐phenylindole solution (DAPI, 4 μg mL^−1 in PBS) was added to gate out dead cells. 100 μM verapamil and 1 μM Ko143 were used as positive controls for P‐gp and BCRP inhibition, respectively. […]

[2] = target: T2, BCRP (Homo sapiens, UniProt Q9UNQ0); test: as above; conditions: for IC50: BCRP IC50, mitoxantrone 7 μM, PLB985 BCRP cells, mean±SD, at least n=3 (11 a n=2); for Hill coefficient BCRP: Hill coefficient of IC50 measurement, mean ± SD of n experiments; for in vitro classification as BCRP inhibitor: IC50 below 10 μM considered active; for fold lower IC50 value for BCRP than for P-gp: ratio IC50 P-gp / IC50 BCRP
T2 construct: expressed in transfected cells; host or cells: PLB985 human myeloid leukemia cells stably expressing BCRP (gift of B. Sarkadi and K. Nemet, Budapest)
Protocol: as §1, §2, §3

[3] = target: T3, P-gp (Homo sapiens, UniProt P08183); test: P-gp inhibition: steady-state daunorubicin accumulation in P-gp-overexpressing CCRF VCR1000 cells (flow cytometry); conditions: for Hill coefficient P-gp: Hill coefficient of IC50 measurement, mean ± SD of n experiments; for in vitro classification as P-gp inhibitor: IC50 below 10 μM considered active; for IC50: daunorubicin 3 μM, CCRF VCR1000 cells, mean±SD, at least n=3
T3 construct: was obtained by stepwise selection of CCRF‐CEM in vincristine‐containing medium; endogenous in cells; host or cells: CCRF VCR1000 (vincristine-selected subline of CCRF-CEM human T-lymphoblasts; gift of V. Gekeler)
Protocol: as §1, §2, §3

T2 sequence (Q9UNQ0 whole entry): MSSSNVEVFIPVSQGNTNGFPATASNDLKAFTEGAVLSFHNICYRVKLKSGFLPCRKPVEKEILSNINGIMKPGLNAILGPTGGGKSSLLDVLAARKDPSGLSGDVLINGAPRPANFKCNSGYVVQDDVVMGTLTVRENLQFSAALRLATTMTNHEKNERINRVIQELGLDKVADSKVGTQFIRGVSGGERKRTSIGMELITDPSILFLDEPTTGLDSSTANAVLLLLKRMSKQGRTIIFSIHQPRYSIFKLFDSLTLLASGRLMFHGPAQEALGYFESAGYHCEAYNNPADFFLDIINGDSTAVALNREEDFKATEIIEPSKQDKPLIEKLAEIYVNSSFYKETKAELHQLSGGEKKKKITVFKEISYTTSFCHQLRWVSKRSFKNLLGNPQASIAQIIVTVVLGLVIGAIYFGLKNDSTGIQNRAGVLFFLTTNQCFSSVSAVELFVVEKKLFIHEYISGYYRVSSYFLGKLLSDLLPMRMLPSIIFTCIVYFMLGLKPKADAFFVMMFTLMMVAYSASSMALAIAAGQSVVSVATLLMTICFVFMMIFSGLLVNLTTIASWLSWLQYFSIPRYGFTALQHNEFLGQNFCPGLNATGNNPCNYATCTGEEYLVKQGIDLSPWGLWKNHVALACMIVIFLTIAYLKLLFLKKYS
T1 sequence (Q9UNQ0 whole entry): as above
T3 sequence (P08183 whole entry): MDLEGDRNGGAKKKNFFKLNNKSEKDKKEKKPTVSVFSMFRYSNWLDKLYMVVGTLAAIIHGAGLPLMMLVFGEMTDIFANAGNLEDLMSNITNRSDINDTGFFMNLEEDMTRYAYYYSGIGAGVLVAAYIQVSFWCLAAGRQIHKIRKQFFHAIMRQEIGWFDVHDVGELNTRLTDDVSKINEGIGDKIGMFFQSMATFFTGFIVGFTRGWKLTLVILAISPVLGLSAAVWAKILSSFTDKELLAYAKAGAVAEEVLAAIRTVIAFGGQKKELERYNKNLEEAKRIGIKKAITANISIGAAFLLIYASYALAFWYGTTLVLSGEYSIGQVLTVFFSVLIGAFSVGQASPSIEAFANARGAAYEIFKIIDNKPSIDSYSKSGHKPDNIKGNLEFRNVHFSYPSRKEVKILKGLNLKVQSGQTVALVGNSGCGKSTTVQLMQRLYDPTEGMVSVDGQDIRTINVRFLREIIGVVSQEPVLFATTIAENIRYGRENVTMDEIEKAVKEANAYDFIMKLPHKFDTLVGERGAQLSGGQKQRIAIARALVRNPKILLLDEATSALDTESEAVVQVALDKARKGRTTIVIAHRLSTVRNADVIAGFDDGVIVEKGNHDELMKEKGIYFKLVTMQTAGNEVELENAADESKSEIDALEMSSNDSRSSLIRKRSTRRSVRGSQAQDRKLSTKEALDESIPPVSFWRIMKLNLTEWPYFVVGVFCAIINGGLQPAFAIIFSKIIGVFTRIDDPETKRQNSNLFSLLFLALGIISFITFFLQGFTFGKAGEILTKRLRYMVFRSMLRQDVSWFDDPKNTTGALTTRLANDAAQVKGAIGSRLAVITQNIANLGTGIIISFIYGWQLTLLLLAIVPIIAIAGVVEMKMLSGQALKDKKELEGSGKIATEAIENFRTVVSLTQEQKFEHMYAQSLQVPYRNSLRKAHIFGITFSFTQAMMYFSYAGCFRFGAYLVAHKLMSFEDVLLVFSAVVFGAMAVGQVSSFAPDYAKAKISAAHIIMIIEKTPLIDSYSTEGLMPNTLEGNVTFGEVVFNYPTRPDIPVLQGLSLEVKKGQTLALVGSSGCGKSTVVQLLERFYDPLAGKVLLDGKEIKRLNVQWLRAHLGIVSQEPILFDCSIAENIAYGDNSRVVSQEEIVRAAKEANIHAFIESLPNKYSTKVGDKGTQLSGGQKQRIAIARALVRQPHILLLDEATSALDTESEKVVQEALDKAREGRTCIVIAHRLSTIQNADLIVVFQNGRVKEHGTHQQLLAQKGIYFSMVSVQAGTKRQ

SMILES | selectivity ratio [1] | IC50 [2] [µM] | Hill coefficient BCRP [2] | in vitro classification as BCRP inhibitor [2] | Hill coefficient P-gp [3] | in vitro classification as P-gp inhibitor [3] | factor more active at P-gp than methoxy analogue 6 b ([3]; P-gp, compared with 6 b) | fold more active at P-gp than analogue 11 a ([3]; P-gp, compared with 11 a) | IC50 [3] [µM] | fold higher IC50 value for BCRP than for P-gp ([3]; ratio IC50 BCRP / IC50 P-gp) | fold lower IC50 value for BCRP than for P-gp [2] [fold]
O=C(CCc1ccccc1)c1ccccc1OCC(O)CN1CC(=O)N2CCCC2C1=O (centres unmarked) [Compound 6 a, 2‐(2‐Hydroxy‐3‐(2‐(3‐phenylpropanoyl)phenoxy)propyl)‐hexahydropyrrolo[1,2‐a]pyrazine‐1,4‐dione] | 0.27 | 5.8 ± 1 | 0.9±0.1 | inhibitors | 2.6±0.4 | inhibitors | 7 | tenfold | 1.6 ± 0.6 | more than 2.6 fold | –
COc1ccc(C(=O)CCc2ccccc2)c(OCC(O)CN2CC(=O)N3CCCC3C2=O)c1 (centres unmarked) [Compound 6 b, 2‐(2‐Hydroxy‐3‐(5‐methoxy‐2‐(3‐phenylpropanoyl)phenoxy)propyl)‐hexahydropyrrolo[1,2‐a]pyrazine‐1,4‐dione] | 2.82 | 3.8 ± 0.6 | 1.1±0.2 | inhibitors | 1.5±0.2 | borderline inhibitory activity | – | – | 11 ± 1 | – | 2.9
COc1ccc(C(=O)CCc2ccccc2)c(OCCN2CC(=O)N3CCCC3C2=O)c1 (centres unmarked) [Compound 11 b, 2‐(2‐(5‐Methoxy‐2‐(3‐phenylpropanoyl)phenoxy)ethyl)‐hexahydropyrrolo[1,2‐a]pyrazine‐1,4‐dione] | 2.7 | 2.3 | 1.1±0.2 | inhibitors | 1.5±0.1 | inhibitors | – | – | 6.2 ± 0.4 | – | 2.7
